The text below walks through data of US12240862B2, “Inhibitors of peptidylarginine deiminases” (Gilead Sciences, Inc., priority 2020, dated 2025).

A word on the pIC50: it is the negative decadic logarithm of the IC50, by convention in mol/L.

Each structure is given as a SMILES string. pIC50: −log10 of the molar value.

For this experiment, the target named is T1, human PAD4 (Homo sapiens, UniProt Q9UM07).
T1 construct: human PAD4 (NM_012387), A2P663, was PCR amplified; His-SUMO (N, cleaved yes); made in house; host or cells: E. coli BL21(DE3)
T1 sequence (Q9UM07 2-663): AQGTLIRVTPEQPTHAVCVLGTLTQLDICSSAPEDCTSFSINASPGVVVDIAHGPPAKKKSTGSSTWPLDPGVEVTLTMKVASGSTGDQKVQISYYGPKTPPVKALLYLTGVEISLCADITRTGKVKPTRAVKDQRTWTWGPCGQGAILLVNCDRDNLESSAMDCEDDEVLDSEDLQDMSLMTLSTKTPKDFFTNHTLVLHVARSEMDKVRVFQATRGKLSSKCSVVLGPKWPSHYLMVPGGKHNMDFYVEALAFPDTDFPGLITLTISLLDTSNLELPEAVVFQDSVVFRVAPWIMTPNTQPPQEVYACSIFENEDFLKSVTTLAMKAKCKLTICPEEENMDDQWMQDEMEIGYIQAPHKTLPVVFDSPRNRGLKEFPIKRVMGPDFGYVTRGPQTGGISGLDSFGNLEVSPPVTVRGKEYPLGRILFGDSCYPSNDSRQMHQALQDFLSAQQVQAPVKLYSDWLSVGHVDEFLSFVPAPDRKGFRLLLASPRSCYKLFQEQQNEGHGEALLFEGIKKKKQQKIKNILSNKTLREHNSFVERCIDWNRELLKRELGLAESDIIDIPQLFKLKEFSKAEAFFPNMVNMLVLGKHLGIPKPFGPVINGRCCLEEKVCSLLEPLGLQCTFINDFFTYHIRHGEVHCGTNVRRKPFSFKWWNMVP
As to the kind of experiment: In vitro PAD4 BAEE biochemical assay. As to conditions: human PAD4, BAEE substrate; 5 nM PAD4, 2 mM calcium chloride, 3 mM BAEE; geometric mean of multiple experiments. The method in brief: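 Ammonia generated from BAEE serves as the readout, measured by o-phthalaldehyde after EDTA termination. Final conditions: 5 nM human PAD4 (SUMO tag cleaved), 2 mM CaCl2, 3 mM BAEE, pH 7.6 MOPS buffer, 25 °C for 2 h following a 30-min compound preincubation.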
For `COc1cc(C(=O)N2CCC[C@@H](N)C2)cc2nc(-c3cc4ccc([C@@H](C)N(C)C(=O)c5ccccc5)nc4n3CC3CC3)c(C)n12` [Example 186, ~{N}-[(1~{R})-1-[2-[7-[(3~{R})-3-aminopiperidine-1-carbonyl]-5-methoxy-3-methylimidazo [1,2-a]pyridin-2-yl]-1-(cyclopropylmethyl)pyrrolo [2,3-b]pyridin-6-yl]ethyl]-~{N}-methylbenzamide], the pIC50 is 6.56. The result for `CCN(c1ccc2cc(-c3nc4cc(C(=O)N5CCC[C@@H](N)[C@H]5C)cc(OC)n4c3C)n(CC3CC3)c2n1)S(C)(=O)=O` [Example 483, ~{N}-[2-[7-[(2~{R}, 3~{R})-3-amino-2-methylpiperidine-1-carbonyl]-5-methoxy-3-methylimidazo[1,2-a]pyridin-2-yl]-1-(cyclopropylmethyl)pyrrolo [2,3-b]pyridin-6-yl]-~{N}-ethylmethanesulfonamide] reads 6.89; that for `COc1cc(C(=O)N2[C@H]3CC[C@@H]2[C@H](N)C3)cc2nc(-c3cc4ccc([C@@H](C)NC(=O)C5CC6(CC6)C5)nc4n3CC3CC3)c(C)n12` [Example 55, ~{N}-[(1~{R})-1-[2-[7-[(1~{R},2~{R},4~{S})-2-amino-7-azabicyclo [2.2.1]heptane-7-carbonyl]-5-methoxy-3-methylimidazo [1,2-a]pyridin-2-yl]-1-(cyclopropylmethyl)pyrrolo[2,3-b]pyridin-6-yl]ethyl] spiro[2.3]hexane-5-carboxamide], 7.28; that for `COc1cc(C(=O)N2[C@H]3CC[C@@H]2[C@H](N)C3)cc2nc(-c3cc4ccc([C@@H](C)NC(=O)N5CCC5)nc4n3CC34CC(C3)C4)c(C)n12` [Example 488], 7.06. With `COC(=O)C12CC(C(=O)N[C@H](C)c3ccc4cc(-c5nc6cc(C(=O)N7[C@H]8CC[C@@H]7[C@H](N)C8)cc(OC)n6c5C)n(CC5CC5)c4n3)(C1)C2` [Example 159, methyl 3-[[(1~{R})-1-[2-[7-[(1~{R},2~{R},4~{S})-2-amino-7-azabicyclo[2.2.1]heptane-7-carbonyl]-5-methoxy-3-methylimidazo [1,2-a]pyridin-2-yl]-1-(cyclopropylmethyl)pyrrolo [2,3-b]pyridin-6-yl]ethyl]carbamoyl]bicyclo[1.1.1] pentane-1-carboxylate] the figure was 7.23; with `COc1cc(C(=O)NC[C@H]2CCCN2)cc2nc(-c3cc4ccc(N(C(F)F)S(C)(=O)=O)nc4n3CC3CC3)c(C)n12` [Example 304, 2-[1-(cyclopropylmethyl)-6-[difluoromethyl (methylsulfonyl)amino]pyrrolo[2,3-b]pyridin-2-yl]-5-methoxy-3-methyl-~{N}-[[(2~{R})-pyrrolidin-2-yl]methyl] imidazo[1,2-a]pyridine-7-carboxamide], 4.72.

For `CCc1ccc2cc(-c3nc4cc(C(=O)N5[C@H]6CC[C@@H]5[C@H](N)C6)cc(OC)n4c3C)n(Cc3cccnc3)c2n1` [Example 513, [(1~{R},2~{R},4~{S})-2-amino-7-azabicyclo [2.2.1]heptan-7-yl]-[2-[6-ethyl-1-(pyridin-3-ylmethyl)pyrrolo [2,3-b]pyridin-2-yl]-5-methoxy-3-methylimidazo[1,2-a]pyridin-7-yl]methanone], the pIC50 is 6.75. Regarding `COc1cc(C(=O)N2[C@H]3CC[C@@H]2[C@H](N)C3)cc2nc(-c3cc4ccc(C5CCCN(C(=O)C(C)(C)C)C5)nc4n3CC3CC3)c(C)n12` (stereo partly shown) [Example 517, 1-[3-[2-[7-[(1~{R},2~{R}, 4~{S})-2-amino-7-azabicyclo[2.2.1]heptane-7-carbonyl]-5-methoxy-3-methylimidazo[1,2-a]pyridin-2-yl]-1-(cyclopropylmethyl)pyrrolo[2,3-b]pyridin-6-yl]piperidin-1-yl]-2,2-dimethylpropan-1-one], the pIC50 is 6.21. With `COc1cc(C(=O)N2[C@H]3CC[C@@H]2[C@H](N)C3)cc2nc(-c3cc4ccc([C@@H](C)NC(=O)C5C(C)(C)C5(F)F)nc4n3CC3CC3)c(C)n12` (stereo partly shown) [Example 103, ~{N}-[(1~{R})-1-[2-[7-[(1~{R},2~{R},4~{S})-2-amino-7-azabicyclo[2.2.1]heptane-7-carbonyl]-5-methoxy-3-methylimidazo [1,2-a]pyridin-2-yl]-1-(cyclopropylmethyl)pyrrolo [2,3-b]pyridin-6-yl]ethyl]-2,2-difluoro-3,3-dimethylcyclopropane-1-carboxamide] the figure was 7.18; with `COc1cc(C(=O)N[C@@H]2C[C@@H]3CC[C@H]2N3)cc2nc(-c3cc4ccc(N(C(F)F)S(C)(=O)=O)nc4n3CC3CC3)c(C)n12` [Example 312, N-[(1R,2R,4S)-7-azabicyclo[2.2.1]heptan-2-yl]-2-[1-(cyclopropylmethyl)-6-[difluoromethyl (methylsulfonyl)amino]pyrrolo[2,3-b]pyridin-2-yl]-5-methoxy-3-methyl-imidazo[1,2-a] pyridine-7-carboxamide], 4.51. In the case of `COc1cc(C(=O)N2[C@H]3CC[C@@H]2[C@H](N)C3)cc2nc(-c3cc4ccc(OCc5ccccc5)nc4n3CC3CC3)c(C)n12` [Example 627, [(1~{R},2~{R},4~{S})-2-amino-7-azabicyclo [2.2.1]heptan-7-yl]-[2-[1-(cyclopropylmethyl)-6-phenylmethoxypyrrolo[2,3-b]pyridin-2-yl]-5-methoxy-3-methylimidazo[1,2-a]pyridin-7-yl]methanone], the pIC50 was 5.47. The result for `COc1cc(C(=O)N2[C@H]3CC[C@@H]2[C@H](N)C3)cc2nc(-c3cc4ccc([C@@H](C)NC(=O)C(F)(F)F)nc4n3CC3CC3)c(C)n12` [Example 162, ~{N}-[(1~{R})-1-[2-[7-[(1~{R},2~{R},4~{S})-2-amino-7-azabicyclo[2.2.1]heptane-7-carbonyl]-5-methoxy-3-methylimidazo [1,2-a]pyridin-2-yl]-1-(cyclopropylmethyl)pyrrolo [2,3-b]pyridin-6-yl]ethyl]-2,2,2-trifluoroacetamide] reads 7.00; that for `COc1cc(C(=O)N2C[C@H](N)[C@@H]3CC[C@H]2C3)cc2nc(-c3cc4ccc([C@@H](C)NC(=O)C56CC(C#N)(C5)C6)nc4n3CC3CC3)c(C3CC3)n12` [Example 632, N-((R)-1-(2-(7-((1S,4R,5R)-4-amino-2-azabicyclo[3.2.1]octane-2-carbonyl)-3-cyclopropyl-5-methoxyimidazo[1,2-a]pyridin-2-yl)-1-(cyclopropylmethyl)-1H-pyrrolo[2,3-b]pyridin-6-yl)ethyl)-3-cyanobicyclo [1.1.1]pentane-1-carboxamide], 6.85; that for `COc1cc(C(=O)N2[C@H]3CC[C@@H]2[C@H](N)C3)cc2nc(-c3cc4ccc([C@@H](C)NC(=O)C56CC(F)(C5)C6)nc4n3CC3CC3)c(C)n12` [Example 169, N—((R)-1-(2-(7-((1R,2R,4S)-2-amino-7-azabicyclo[2.2.1]heptane-7-carbonyl)-5-methoxy-3-methylimidazo[1,2-a]pyridin-2-yl)-1-(cyclopropylmethyl)-1H-pyrrolo[2,3-b]pyridin-6-yl)ethyl)-3-fluorobicyclo[1.1.1]pentane-1-carboxamide], 7.16. The result for `COc1cc(C(=O)N2[C@H]3CC[C@@H]2[C@H](N)C3)cc2nc(-c3cc4ccc([C@@H](C)NC(=O)N5C[C@H]6OCC[C@H]65)nc4n3CC3CC3)c(C)n12` [Example 196, (1~{R},5~{R})-~{N}-[(1~{R})-1-[2-[7-[(1~{R},2~{R},4~{S})-2-amino-7-azabicyclo[2.2.1]heptane-7-carbonyl]-5-methoxy-3-methylimidazo [1,2-a]pyridin-2-yl]-1-(cyclopropylmethyl)pyrrolo [2,3-b]pyridin-6-yl]ethyl]-2-oxa-6-azabicyclo [3.2.0]heptane-6-carboxamide] reads 7.53; that for `COc1cc(C(=O)N2[C@H]3CC[C@@H]2[C@H](N)C3)cc2nc(-c3cc4ccc([C@@H](C)NC(=O)C5CCC(F)(F)CC5)nc4n3CC3CC3)c(C)n12` [Example 66, ~{N}-[(1~{R})-1-[2-[7-[(1~{R},2~{R},4~{S})-2-amino-7-azabicyclo [2.2.1]heptane-7-carbonyl]-5-methoxy-3-methylimidazo [1,2-a]pyridin-2-yl]-1-(cyclopropylmethyl)pyrrolo[2,3-b]pyridin-6-yl]ethyl]-4,4-difluorocyclohexane-1-carboxamide], 7.16; that for `COc1cc(C(=O)N2[C@H]3CC[C@@H]2[C@H](N)C3)cc2nc(-c3cc4ccc(C(C)CC(N)=O)nc4n3CC3CC3)c(C)n12` (stereo partly shown) [Example 520, 3-[2-[7-[(1~{R},2~{R}, 4~{S})-2-amino-7-azabicyclo[2.2.1]heptane-7-carbonyl]-5-methoxy-3-methylimidazo[1,2-a]pyridin-2-yl]-1-(cyclopropylmethyl)pyrrolo[2,3-b]pyridin-6-yl]butanamide], 7.13. For `COc1cc(C(=O)N2[C@H]3CC[C@@H]2[C@H](N)C3)cc2nc(-c3cc4ccc(C5CCN(C)C(=O)C5)nc4n3CC3CC3)c(C)n12` (stereo partly shown) [Example 560, 4-[2-[7-[(1~{R},2~{R}, 4~{S})-2-amino-7-azabicyclo[2.2.1]heptane-7-carbonyl]-5-methoxy-3-methylimidazo[1,2-a]pyridin-2-yl]-1-(cyclopropylmethyl)pyrrolo [2,3-b]pyridin-6-yl]-1-methylpiperidin-2-one], the pIC50 is 6.94. In the case of `COc1cc(C(=O)N2[C@H]3CC(C)[C@@H]2[C@H](N)C3)cc2nc(-c3cc4ccc(N(C(F)F)S(C)(=O)=O)nc4n3CC3CC3)c(C)n12` (stereo partly drawn) [Example 351, N-[2-[7-[(1R,2R,4S)-2-amino-6-methyl-7-azabicyclo[2.2.1]heptane-7-carbonyl]-5-methoxy-3-methyl-imidazo[1,2-a]pyridin-2-yl]-1-(cyclopropylmethyl)pyrrolo [2,3-b]pyridin-6-yl]-N-(difluoromethyl) methanesulfonamide], the pIC50 was 5.19.
